Data from patent US9566312B2, “Cyclic peptides and use as medicines” (priority 2012, dated 2017).
Like-named read-outs stand apart in the source and are kept apart here. Starred links: 1 amine or outer side, 2 acyl side, 3 side chain; linkers in the order of their positions; H or OH if unused. Non-standard residues stand in square brackets, D forms with d. Residues, ends and D or L forms follow the SMILES beside them. X58 = C[C@H](COCCN1CCN(C2CCC2)CC1)[C@@H](C(=O)[*:2])N(C)[*:1]; X63 = C[C@H](CN1CCN(C2COC2)CC1)[C@@H](C(=O)[*:2])N(C)[*:1]; X79 = COCCN1CCN(CC[C@@H](C)[C@@H](C(=O)[*:2])N(C)[*:1])CC1; X19 = COCCN1CCN(C[C@H](C)[C@@H](C(=O)[*:2])N(C)[*:1])CC1; X21 = CCN1CCN(C[C@@H](C)[C@@H](C(=O)[*:2])N(C)[*:1])CC1; X11 = CCN1CCN(C[C@H](C)[C@@H](C(=O)[*:2])N(C)[*:1])CC1; X14 = C[C@H](CN1CCN(C)CC1)[C@@H](C(=O)[*:2])N(C)[*:1]; X18 = C[C@H](CCC(C)(C)O)[C@@H](C(=O)[*:2])N(C)[*:1]; MeBmt = C/C=C/C[C@@H](C)[C@@H](O)[C@H](NC)C(=O)O; X13 = C[C@H](CC#N)[C@@H](C(=O)[*:2])N(C)[*:1]; X24 = C[C@H](CO)[C@@H](C(=O)[*:2])N(C)[*:1]; NMeL = CN[C@@H](CC(C)C)C(=O)O; NMeV = CN[C@H](C(=O)O)C(C)C; dNMeA = CN[C@H](C)C(=O)O; Abu = CC[C@H](N)C(=O)O

Tests used:
cyclophilin A (CypA) = cyclophilin A (CypA) (Homo sapiens (Human), UniProt P62937); test: Inhibitor binding to cyclophilin proteins by SPR, CypA; set-up: unit not given here; settings: 1:1 binding model;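 further: Single-cycle kinetics on a Biacore T200, compound injected at several concentrations for 1 min each at 50 µL/min, then 10 min dissociation, in HEPES pH 7.4 buffer with 3% DMSO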
cyclophilin B (CypB) = cyclophilin B (CypB) (Homo sapiens (Human), UniProt P23284); test: Inhibitor binding to cyclophilin proteins by SPR, CypB; set-up: unit not given here; settings: 1:1 binding model
In short: (§1)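 Running buffer: 10 mM HEPES pH 7.4, 150 mM NaCl, 0.05% P20, 3% DMSO, with compound present. Capture of avi-tagged mono-biotinylated cyclophilin; single-cycle series, 1 min contact, 10 min dissociation. Rates and affinity fitted to a 1:1 interaction model.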

CypF = CypF (Homo sapiens (Human), UniProt P30405); test: Inhibitor binding to cyclophilin proteins by SPR, CypF; settings: 1:1 binding model
In short: as §1

[1] = tested on: genotype 1b subgenomic HCV replicon in Huh7.5 cells; format: cell-based, hepatitis C virus; settings: read-out: RPLN-1b IC50
In short: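 Huh7.5 cells carrying genotype 1b subgenomic HCV replicon with renilla luciferase-neomycin reporter, in phenol red-free DMEM without G418. Luciferase measured after 72 h compound exposure relative to DMSO-treated cells; cytotoxicity (CC50) by Cell Titer-Glo.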

[2] = tested on: peripheral blood mononuclear cells (PBMC); test: Anti-proliferative or immunosuppressive activity, BrdU incorporation in PHA-stimulated PBMC; format: cell-based; settings: PHA 3 μg/ml, 60 hour compound treatment; read-out: EMV PBMC IC50
In short: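 Fresh PBMCs from two donors, 30,000 per well in X-VIVO 15 medium, stimulated with 3 μg/ml PHA to drive T-cell proliferation. Proliferation measured as BrdU incorporation into DNA by BrdU ELISA.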

[3] = biological target: organic anion transporting polypeptide 1B1 (OATP1B1) (Homo sapiens (Human), UniProt Q9Y6L6); test: OATP assay in CHO-OATP1B1 cells;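 further: inhibition of probe substrate uptake into the cells, ten minutes exposure, accumulated substrate read by fluorescence once cells were lysed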
Method: In order to determine whether the compounds of the present invention interact with hepatic transporters, experiments were carried out that compared the concentration-dependent inhibition toward the organic anion transporting polypeptide 1B1 (OATP1B1) and the multidrug resistance associated protein 2 (MRP2).
The cells were cultured in DMEM/F12 +10% FBS+2 mM Ala-Gln+1% Pen-Strep for a period of two days, and the media was changed one day post-seeding. Prior to the assay, media was aspirated and were washed −3× with HBSS+10 mM HEPES and the solution was equilibrated for 15 min in HBSS+10 mM HEPES. Solutions containing the inhibitor were prepared in HBSS+10 mM HEPES (up to 1% DMSO). […] After 10 min, the substrate or substrate/inhibitor solution was aspirated and the cells were washed 3× with HBSS+10 mM HEPES. The amount of the transported probe substrate was determined by fluorescent photometry after cell lysis, and the IC50 was derived from the concentration-response curve.

CYP3A4 = CYP3A4 (Homo sapiens (Human), UniProt P08684); test: Time-dependent inhibition of CYP3A4;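 further: Two-step in vitro assay, kobs derived from residual CYP3A4 activity versus preincubation time per concentration, then kinact and KI by nonlinear fit of kobs against concentration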
Method: Method 5: Measuring Time-Dependent Inhibition of CYP3A4
The CYP3A4 time dependent inhibition potential of various inhibitors was determined by a two step in vitro assay. […] The inactivation rate constant (kobs) was obtained by plotting the activity remaining over pre-incubation time for each concentration of compound. The maximal inactivation rate (kinact) and the inactivation potency (KI) were calculated by non linear regression analysis of the inactivation rate constant (kobs) versus compound concentrations [I] curve according to the equation kobs=[kinact·[I]]/[KI+[I]]

[4] = genotype 1b replicon, 72 h incubation

organic anion transporting polypeptide 1B1 (OATP1B1), sequence (Q9Y6L6 whole entry): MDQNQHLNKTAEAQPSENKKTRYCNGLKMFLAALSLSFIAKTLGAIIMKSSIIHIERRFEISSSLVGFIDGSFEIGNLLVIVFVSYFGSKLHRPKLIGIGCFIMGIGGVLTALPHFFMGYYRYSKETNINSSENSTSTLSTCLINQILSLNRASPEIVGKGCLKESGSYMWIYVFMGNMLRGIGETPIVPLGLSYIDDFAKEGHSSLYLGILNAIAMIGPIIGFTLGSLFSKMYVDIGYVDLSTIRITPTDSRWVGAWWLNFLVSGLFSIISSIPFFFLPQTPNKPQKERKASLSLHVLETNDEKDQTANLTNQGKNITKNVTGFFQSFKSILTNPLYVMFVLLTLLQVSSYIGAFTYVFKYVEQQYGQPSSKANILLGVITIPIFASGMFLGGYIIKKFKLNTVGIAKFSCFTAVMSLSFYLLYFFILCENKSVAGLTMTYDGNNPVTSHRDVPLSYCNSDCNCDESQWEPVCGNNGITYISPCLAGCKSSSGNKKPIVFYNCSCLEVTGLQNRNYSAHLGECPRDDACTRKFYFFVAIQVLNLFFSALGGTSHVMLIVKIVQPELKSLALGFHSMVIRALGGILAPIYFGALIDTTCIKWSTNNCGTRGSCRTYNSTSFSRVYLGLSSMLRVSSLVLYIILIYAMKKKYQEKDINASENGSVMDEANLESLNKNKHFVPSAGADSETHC
CypF, sequence (P30405 30-207): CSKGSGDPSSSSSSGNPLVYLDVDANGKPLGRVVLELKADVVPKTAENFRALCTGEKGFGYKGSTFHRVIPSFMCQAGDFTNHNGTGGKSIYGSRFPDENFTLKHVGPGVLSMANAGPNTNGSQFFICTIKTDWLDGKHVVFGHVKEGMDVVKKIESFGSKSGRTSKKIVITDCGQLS
cyclophilin A (CypA), sequence (P62937 whole entry): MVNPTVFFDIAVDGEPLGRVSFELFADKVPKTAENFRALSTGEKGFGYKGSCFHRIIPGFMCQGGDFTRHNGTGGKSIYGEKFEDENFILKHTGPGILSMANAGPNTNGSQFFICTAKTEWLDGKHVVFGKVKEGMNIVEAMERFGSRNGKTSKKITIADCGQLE
cyclophilin B (CypB), sequence (P23284 34-216): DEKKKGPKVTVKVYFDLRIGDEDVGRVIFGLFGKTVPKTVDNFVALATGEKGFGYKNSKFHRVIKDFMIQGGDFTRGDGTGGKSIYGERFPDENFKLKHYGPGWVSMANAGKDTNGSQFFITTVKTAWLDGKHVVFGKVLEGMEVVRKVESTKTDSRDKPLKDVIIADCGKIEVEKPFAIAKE
CYP3A4, sequence (P08684 whole entry): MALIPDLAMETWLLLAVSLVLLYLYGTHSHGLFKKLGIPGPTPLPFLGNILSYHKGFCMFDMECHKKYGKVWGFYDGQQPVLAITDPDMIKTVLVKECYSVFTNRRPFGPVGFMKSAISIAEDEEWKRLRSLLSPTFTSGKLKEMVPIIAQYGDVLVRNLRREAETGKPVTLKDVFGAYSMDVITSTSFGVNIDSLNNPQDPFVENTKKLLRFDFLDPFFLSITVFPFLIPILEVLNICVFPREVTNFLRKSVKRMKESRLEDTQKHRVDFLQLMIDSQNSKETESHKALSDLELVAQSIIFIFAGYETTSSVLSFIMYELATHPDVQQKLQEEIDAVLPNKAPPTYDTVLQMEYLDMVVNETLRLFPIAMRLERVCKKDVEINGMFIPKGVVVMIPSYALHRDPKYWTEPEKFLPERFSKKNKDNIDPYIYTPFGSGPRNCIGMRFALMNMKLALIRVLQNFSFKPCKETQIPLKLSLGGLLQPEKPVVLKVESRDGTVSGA

SMILES	CypA Kd (cyclophilin A (CypA))	CypB Kd (cyclophilin B (CypB))	CypF Kd (CypF) [nM]	IC50 [1, 4] [nM]	IC50 [2] [µM]	IC50 [3] [µM]	Ki (CYP3A4) [µM]	NIM TDI, result in words (CYP3A4; probe substrate midazolam)	IC50 [1] [nM]	NIM TDI kinact/Ki (CYP3A4; probe substrate midazolam) [µL/min/pmol]
C/C=C/C[C@@H](C)[C@@H](O)[C@H]1C(=O)N[C@@H](CC)C(=O)N(C)[C@H](C)C(=O)N(C)[C@@H]([C@H](C)CN2CCN(CC)CC2)C(=O)N[C@@H](C(C)C)C(=O)N(C)[C@@H](CC(C)C)C(=O)N[C@@H](C)C(=O)N[C@H](C)C(=O)N(C)[C@@H](CC(C)C)C(=O)N(C)[C@@H](CC(C)C)C(=O)N(C)[C@@H](C(C)C)C(=O)N1C [Compound 2.5.13, 3-[D-Ala]-4[(2S,3R)-2-Amino-4-(4-ethyl-piperazin-1-yl)-butanoyl]-cyclosporin] (cyclo(A[dA][NMeL][NMeL][NMeV][MeBmt][Abu][dNMeA][X21]V[NMeL]))	0.9	0.8	0.5	50	5.3	4.56	> 50	–	–	–
C/C=C/C[C@@H](C)[C@@H](O)[C@H]1C(=O)N[C@@H](CC)C(=O)N(C)[C@H](C)C(=O)N(C)[C@@H]([C@H](C)CO)C(=O)N[C@@H](C(C)C)C(=O)N(C)[C@@H](CC(C)C)C(=O)N[C@@H](C)C(=O)N[C@H](C)C(=O)N(C)[C@@H](CC(C)C)C(=O)N(C)[C@@H](CC(C)C)C(=O)N(C)[C@@H](C(C)C)C(=O)N1C [Compound 2.5.1, 3-[D-Ala]-4-[(2S,3S)-4-hydroxy-3-methyl-2-(methylamino)butanoyl]-cyclosporin] (cyclo(A[dA][NMeL][NMeL][NMeV][MeBmt][Abu][dNMeA][X24]V[NMeL]))	4.8	3.5	2.2	400	6.8	3.6	–	No TDI	–	–
C/C=C/C[C@@H](C)[C@@H](O)[C@H]1C(=O)N[C@@H](CC)C(=O)N(C)[C@H](C)C(=O)N(C)[C@@H]([C@@H](C)CN2CCN(CC)CC2)C(=O)N[C@@H](C(C)C)C(=O)N(C)[C@@H](CC(C)C)C(=O)N[C@@H](C)C(=O)N[C@H](C)C(=O)N(C)[C@@H](CC(C)C)C(=O)N(C)[C@@H](CC(C)C)C(=O)N(C)[C@@H](C(C)C)C(=O)N1C [Compound 2.17.2, 3-[D-Ala]-4[(2S,3S)-2-Amino-4-(4-ethyl-piperazin-1-yl)-3-methyl-butanoyl]-cyclosporin] (cyclo(A[dA][NMeL][NMeL][NMeV][MeBmt][Abu][dNMeA][X11]V[NMeL]))	0.6	0.5	0.5	35	14.5	5.1	> 50	–	–	–
C/C=C/C[C@@H](C)[C@@H](O)[C@H]1C(=O)N[C@@H](CC)C(=O)N(C)[C@H](C)C(=O)N(C)[C@@H]([C@H](C)CCC(C)(C)O)C(=O)N[C@@H](C(C)C)C(=O)N(C)[C@@H](CC(C)C)C(=O)N[C@@H](C)C(=O)N[C@H](C)C(=O)N(C)[C@@H](CC(C)C)C(=O)N(C)[C@@H](CC(C)C)C(=O)N(C)[C@@H](C(C)C)C(=O)N1C [Compound 2.12, 3-[D-Ala]-4-[(2S,3R)-6-hydroxy-3,6-dimethyl-2-(methylamino)heptanoyl]-cyclosporin] (cyclo(A[dA][NMeL][NMeL][NMeV][MeBmt][Abu][dNMeA][X18]V[NMeL]))	2.1	1.1	1.1	–	7.1	2.2	> 50	–	80	–
C/C=C/C[C@@H](C)[C@@H](O)[C@H]1C(=O)N[C@@H](CC)C(=O)N(C)[C@H](C)C(=O)N(C)[C@@H]([C@H](C)CN2CCN(C3COC3)CC2)C(=O)N[C@@H](C(C)C)C(=O)N(C)[C@@H](CC(C)C)C(=O)N[C@@H](C)C(=O)N[C@H](C)C(=O)N(C)[C@@H](CC(C)C)C(=O)N(C)[C@@H](CC(C)C)C(=O)N(C)[C@@H](C(C)C)C(=O)N1C [Compound 2.5.11] (cyclo(A[dA][NMeL][NMeL][NMeV][MeBmt][Abu][dNMeA][X63]V[NMeL]))	1.6	1.2	1	50	13.9	1.17	> 50	–	–	–
C/C=C/C[C@@H](C)[C@@H](O)[C@H]1C(=O)N[C@@H](CC)C(=O)N(C)[C@H](C)C(=O)N(C)[C@@H]([C@@H](C)CN2CCN(CCOC)CC2)C(=O)N[C@@H](C(C)C)C(=O)N(C)[C@@H](CC(C)C)C(=O)N[C@@H](C)C(=O)N[C@H](C)C(=O)N(C)[C@@H](CC(C)C)C(=O)N(C)[C@@H](CC(C)C)C(=O)N(C)[C@@H](C(C)C)C(=O)N1C [Compound 2.17.4, 3-[D-Ala]-4[(2S,3S)-2-Amino-4-[4-(2-methoxy-ethyl)-piperazin-1-yl]-3-methyl-butanoyl]-cyclosporin] (cyclo(A[dA][NMeL][NMeL][NMeV][MeBmt][Abu][dNMeA][X19]V[NMeL]))	0.6	0.5	0.3	31	2.7	3.2	> 50	–	–	–
C/C=C/C[C@@H](C)[C@@H](O)[C@H]1C(=O)N[C@@H](CC)C(=O)N(C)[C@H](C)C(=O)N(C)[C@@H]([C@H](C)CCN2CCN(CCOC)CC2)C(=O)N[C@@H](C(C)C)C(=O)N(C)[C@@H](CC(C)C)C(=O)N[C@@H](C)C(=O)N[C@H](C)C(=O)N(C)[C@@H](CC(C)C)C(=O)N(C)[C@@H](CC(C)C)C(=O)N(C)[C@@H](C(C)C)C(=O)N1C [Compound 2.18.3, 3-[D-Ala]-4-[(2S,3R)-5-(4-(2-methoxyethyl)piperazin-1-yl)-3-methyl-2-(methylamino)pentanoyl]-cyclosporin] (cyclo(A[dA][NMeL][NMeL][NMeV][MeBmt][Abu][dNMeA][X79]V[NMeL]))	0.9	0.6	0.5	73	11.1	9.1	> 50	–	–	–
C/C=C/C[C@@H](C)[C@@H](O)[C@H]1C(=O)N[C@@H](CC)C(=O)N(C)[C@H](C)C(=O)N(C)[C@@H]([C@H](C)CN2CCN(C)CC2)C(=O)N[C@@H](C(C)C)C(=O)N(C)[C@@H](CC(C)C)C(=O)N[C@@H](C)C(=O)N[C@H](C)C(=O)N(C)[C@@H](CC(C)C)C(=O)N(C)[C@@H](CC(C)C)C(=O)N(C)[C@@H](C(C)C)C(=O)N1C [Compound 2.5.29, 3-[D-Ala]-4-[(2S,3R)-3-methyl-2-(methylamino)-4-(4-methylpiperazin-1-yl)butanoyl]-cyclosporin] (cyclo(A[dA][NMeL][NMeL][NMeV][MeBmt][Abu][dNMeA][X14]V[NMeL]))	1.5	0.7	0.6	56	12.2	7.9	> 50	–	–	–
C/C=C/C[C@@H](C)[C@@H](O)[C@H]1C(=O)N[C@@H](CC)C(=O)N(C)[C@H](C)C(=O)N(C)[C@@H]([C@H](C)CC#N)C(=O)N[C@@H](C(C)C)C(=O)N(C)[C@@H](CC(C)C)C(=O)N[C@@H](C)C(=O)N[C@H](C)C(=O)N(C)[C@@H](CC(C)C)C(=O)N(C)[C@@H](CC(C)C)C(=O)N(C)[C@@H](C(C)C)C(=O)N1C [Compound 2.10, 3-[D-Ala]-4-[(2S,3R)-4-cyano-3-methyl-2-(methylamino)butanoyl]-cyclosporin] (cyclo(A[dA][NMeL][NMeL][NMeV][MeBmt][Abu][dNMeA][X13]V[NMeL]))	1.2	0.5	0.5	27	12.9	0.9	> 50	–	–	–
C/C=C/C[C@@H](C)[C@@H](O)[C@H]1C(=O)N[C@@H](CC)C(=O)N(C)[C@H](C)C(=O)N(C)[C@@H]([C@H](C)COCCN2CCN(C3CCC3)CC2)C(=O)N[C@@H](C(C)C)C(=O)N(C)[C@@H](CC(C)C)C(=O)N[C@@H](C)C(=O)N[C@H](C)C(=O)N(C)[C@@H](CC(C)C)C(=O)N(C)[C@@H](CC(C)C)C(=O)N(C)[C@@H](C(C)C)C(=O)N1C [Compound 2.8.8, 3-[D-Ala]-4-[(2S,3S)-4-(2-(4-cyclobutylpiperazin-1-yl)ethoxy)-3-methyl-2-(methylamino)butanoyl]-cyclosporin] (cyclo(A[dA][NMeL][NMeL][NMeV][MeBmt][Abu][dNMeA][X58]V[NMeL]))	0.5	0.5	0.3	35	18.9	3.5	–	–	–	0.0007
